Reference: publication PMC3048208 (British Journal of Cancer, 2011)
Counter-ions that a name gives are not always drawn. Marks after values point to notes of the source that are not given here.

System: patients with advanced solid tumours
Test: Phase I safety: DLT and adverse events (CTCAE v3.0)
[1] = Grades 3/4, level 1, 10 mg 3 days every 2 weeks, 3 patients
[2] = Grades 3/4, level 2, 10 mg, 6 patients
[3] = Grades 3/4, level 3, 20 mg, 6 patients
[4] = Grades 3/4, level 4, 30 mg, 4 patients
[5] = Grades 3/4, level 5, 50 mg, 4 patients
[6] = Grades 3/4, level 5.5, 60 mg, 7 patients
[7] = Grades 3/4, level 6, 70 mg, 6 patients
[8] = Grades 3/4, level 7, 90 mg, 2 patients
[9] = all 38 treated patients, all grades
[10] = dose level 3, dose 20, 5 days every 2 weeks
[11] = dose level 6, dose 70, 5 days every 2 weeks, re-opened for expansion

CCCCc1nc2cc(/C=C/C(=O)NO)ccc2n1CCN(CC)CC [SB939, 3-[2-butyl-1-(2-diethylaminoethyl)-1H-benzoimidazol-5-yl]-N-hydroxyacrylami-hydrochloride]
1/2 ^b: No. of patients with DLT/total no. of patients treated (dose level 7, dose 90, 5 days every 2 weeks, neither patient completed a full cycle)
4: Grade 3 fatigue, no. of patients (all 38 treated patients)
0/3: No. of patients with DLT/total no. of patients treated (dose level 1, dose 10, 3 days every 2 weeks) | No. of patients with DLT/total no. of patients treated (dose level 6, dose 70, 5 days every 2 weeks, escalation phase)
80%: Lymphopenia, patients (dose ⩾60 mg)
three: Grade 2 QTc prolongation, no. of patients (dose level of 60 mg or higher)
90 mg: Maximal administered dose (MAD) (oral, 5 days every 2 weeks)
1: Neutropenia, no. of patients [1] | Alkaline phophatase (raised), no. of patients [2] | Alkaline phophatase (raised), no. of patients [3] | Anaemia, no. of patients [3] | CPK, no. of patients [3] | Myositis, no. of patients [3] | Syncope, no. of patients [3] | Diarrhoea, no. of patients [6] | Fatigue, no. of patients [6] | Leukopenia, no. of patients [6] | Leukopenia, no. of patients [7] | Neutropenia, no. of patients [7] | Thrombocytopenia, no. of patients [7] | Fatigue, no. of patients [8] | Vomiting, no. of patients [8] | Anaemia, no. of patients (grade 3)
Grade 3 fatigue Grade 3 vomiting: DLT (dose level 7, dose 90, 5 days every 2 weeks)
475 ms: Maximum QTc (one patient, Day 1 cycle 7, 10 h after dose, unclear if drug related)
60%: Granulocytopenia, patients (dose ⩾60 mg)
3/3: No. of patients with DLT/total no. of patients treated [11]
3: Lymphopenia, no. of patients [6] | Lymphopenia, no. of patients [7]
57%: Lymphopenia, patients (dose levels ⩽50 mg)
18%: Diarrhoea, related AE, frequency [9]
1/6 ^a: No. of patients with DLT/total no. of patients treated (dose level 2, dose 10, 5 days every 2 weeks, grade 3 bilirubin subsequently declared not drug related)
four: Grade 2 QTc prolongation, no. of patients (all dose levels)
one: Grade 3 diarrhea, no. of patients (all 38 treated patients) | Grade 3 myositis, no. of patients (all 38 treated patients) | Grade 3 syncope, no. of patients (all 38 treated patients) | Grade 3 vomiting, no. of patients (all 38 treated patients) | Grade 3 CPK elevation, no. of patients (patient with myositis)
0/4: No. of patients with DLT/total no. of patients treated (dose level 4, dose 30, 5 days every 2 weeks) | No. of patients with DLT/total no. of patients treated (dose level 5, dose 50, 5 days every 2 weeks)
60 mg: Recommended phase II dose (RPTD) (oral, 5 consecutive days every 2 weeks)
two: Dose omissions, no. of patients (RPTD 60 mg, n=7, alteration of liver function tests) | Dose reductions, no. of patients (RPTD 60 mg, n=7, transaminase rise and QTc prolongation)
39%: Nausea, related AE, frequency [9]
20–39%: LVEF during periods of arrhythmia (one patient, cycle 7, baseline 55%, unclear if drug related)
2: Lymphopenia, no. of patients [2] | Lymphopenia, no. of patients [5] | ALT (raised), no. of patients [6] | Fatigue, no. of patients [7]
53%: Fatigue, related AE, frequency [9]
10: Anaemia, no. of patients (grade 2)
Grade 4 platelets Grade 3 fatigue: DLT [11]
0: Myositis, no. of patients [1] | Nausea, no. of patients [1] | QT prolongation, no. of patients [1] | Supra ventricular arrythmia, no. of patients [1] | Syncope, no. of patients [1] | Thrombocytopenia, no. of patients [1] | Ventricular arrythmias (PVCs), no. of patients [1] | Ventricular bigemini, no. of patients [1] | Vomiting, no. of patients [1] | ALT (raised), no. of patients [2] | AST (raised), no. of patients [2] | Abdominal pain, no. of patients [2] | Altered taste, no. of patients [2] | Anaemia, no. of patients [2] | Anorexia, no. of patients [2] | Bilirubin (raised), no. of patients [2] | CPK, no. of patients [2] | Cardiac arrythmia other, no. of patients [2] | Cardiac dysfunction, no. of patients [2] | Cardiac ischaemia, no. of patients [2] | Constipation, no. of patients [2] | Creatinine (raised), no. of patients [2] | Diarrhoea, no. of patients [2] | Fatigue, no. of patients [2] | Leukopenia, no. of patients [2] | Mucositis, no. of patients [2] | Myositis, no. of patients [2] | Nausea, no. of patients [2] | Neutropenia, no. of patients [2] | QT prolongation, no. of patients [2] | Supra ventricular arrythmia, no. of patients [2] | Syncope, no. of patients [2] | Thrombocytopenia, no. of patients [2] | Ventricular arrythmias (PVCs), no. of patients [2] | Ventricular bigemini, no. of patients [2] | Vomiting, no. of patients [2] | ALT (raised), no. of patients [3] | AST (raised), no. of patients [3] | Abdominal pain, no. of patients [3] | Altered taste, no. of patients [3] | Anorexia, no. of patients [3] | Bilirubin (raised), no. of patients [3] | Cardiac arrythmia other, no. of patients [3] | Cardiac dysfunction, no. of patients [3] | Cardiac ischaemia, no. of patients [3] | Constipation, no. of patients [3] | Creatinine (raised), no. of patients [3] | Diarrhoea, no. of patients [3] | Fatigue, no. of patients [3] | Leukopenia, no. of patients [3] | Lymphopenia, no. of patients [3] | Mucositis, no. of patients [3] | Nausea, no. of patients [3] | Neutropenia, no. of patients [3] | QT prolongation, no. of patients [3] | Supra ventricular arrythmia, no. of patients [3] | Thrombocytopenia, no. of patients [3] | Ventricular arrythmias (PVCs), no. of patients [3] | Ventricular bigemini, no. of patients [3] | Vomiting, no. of patients [3] | ALT (raised), no. of patients [4] | AST (raised), no. of patients [4] | Abdominal pain, no. of patients [4] | Alkaline phophatase (raised), no. of patients [4] | Altered taste, no. of patients [4] | Anaemia, no. of patients [4] | Anorexia, no. of patients [4] | Bilirubin (raised), no. of patients [4] | CPK, no. of patients [4] | Cardiac arrythmia other, no. of patients [4] | Cardiac dysfunction, no. of patients [4] | Cardiac ischaemia, no. of patients [4] | Constipation, no. of patients [4] | Creatinine (raised), no. of patients [4] | Diarrhoea, no. of patients [4] | Fatigue, no. of patients [4] | Leukopenia, no. of patients [4] | Lymphopenia, no. of patients [4] | Mucositis, no. of patients [4] | Myositis, no. of patients [4] | Nausea, no. of patients [4] | Neutropenia, no. of patients [4] | QT prolongation, no. of patients [4] | Supra ventricular arrythmia, no. of patients [4] | Syncope, no. of patients [4] | Thrombocytopenia, no. of patients [4] | Ventricular arrythmias (PVCs), no. of patients [4] | Ventricular bigemini, no. of patients [4] | Vomiting, no. of patients [4] | ALT (raised), no. of patients [5] | AST (raised), no. of patients [5] | Abdominal pain, no. of patients [5] | Alkaline phophatase (raised), no. of patients [5] | Altered taste, no. of patients [5] | Anaemia, no. of patients [5] | Anorexia, no. of patients [5] | Bilirubin (raised), no. of patients [5] | CPK, no. of patients [5] | Cardiac arrythmia other, no. of patients [5] | Cardiac dysfunction, no. of patients [5] | Cardiac ischaemia, no. of patients [5] | Constipation, no. of patients [5] | Creatinine (raised), no. of patients [5] | Diarrhoea, no. of patients [5] | Fatigue, no. of patients [5] | Leukopenia, no. of patients [5] | Mucositis, no. of patients [5] | Myositis, no. of patients [5] | Nausea, no. of patients [5] | Neutropenia, no. of patients [5] | QT prolongation, no. of patients [5] | Supra ventricular arrythmia, no. of patients [5] | Syncope, no. of patients [5] | Thrombocytopenia, no. of patients [5] | Ventricular arrythmias (PVCs), no. of patients [5] | Ventricular bigemini, no. of patients [5] | Vomiting, no. of patients [5] | AST (raised), no. of patients [6] | Abdominal pain, no. of patients [6] | Alkaline phophatase (raised), no. of patients [6] | Altered taste, no. of patients [6] | Anaemia, no. of patients [6] | Anorexia, no. of patients [6] | Bilirubin (raised), no. of patients [6] | CPK, no. of patients [6] | Cardiac arrythmia other, no. of patients [6] | Cardiac dysfunction, no. of patients [6] | Cardiac ischaemia, no. of patients [6] | Constipation, no. of patients [6] | Creatinine (raised), no. of patients [6] | Mucositis, no. of patients [6] | Myositis, no. of patients [6] | Nausea, no. of patients [6] | Neutropenia, no. of patients [6] | QT prolongation, no. of patients [6] | Supra ventricular arrythmia, no. of patients [6] | Syncope, no. of patients [6] | Thrombocytopenia, no. of patients [6] | Ventricular arrythmias (PVCs), no. of patients [6] | Ventricular bigemini, no. of patients [6] | Vomiting, no. of patients [6] | ALT (raised), no. of patients [7] | AST (raised), no. of patients [7] | Abdominal pain, no. of patients [7] | Alkaline phophatase (raised), no. of patients [7] | Altered taste, no. of patients [7] | Anaemia, no. of patients [7] | Anorexia, no. of patients [7] | Bilirubin (raised), no. of patients [7] | CPK, no. of patients [7] | Cardiac arrythmia other, no. of patients [7] | Cardiac dysfunction, no. of patients [7] | Cardiac ischaemia, no. of patients [7] | Constipation, no. of patients [7] | Creatinine (raised), no. of patients [7] | Diarrhoea, no. of patients [7] | Mucositis, no. of patients [7] | Myositis, no. of patients [7] | Nausea, no. of patients [7] | QT prolongation, no. of patients [7] | Supra ventricular arrythmia, no. of patients [7] | Syncope, no. of patients [7] | Ventricular arrythmias (PVCs), no. of patients [7] | Ventricular bigemini, no. of patients [7] | Vomiting, no. of patients [7] | ALT (raised), no. of patients [8] | AST (raised), no. of patients [8] | Abdominal pain, no. of patients [8] | Alkaline phophatase (raised), no. of patients [8] | Altered taste, no. of patients [8] | Anaemia, no. of patients [8] | Anorexia, no. of patients [8] | Bilirubin (raised), no. of patients [8] | CPK, no. of patients [8] | Cardiac arrythmia other, no. of patients [8] | Cardiac dysfunction, no. of patients [8] | Cardiac ischaemia, no. of patients [8] | Constipation, no. of patients [8] | Creatinine (raised), no. of patients [8] | Diarrhoea, no. of patients [8] | Leukopenia, no. of patients [8] | Lymphopenia, no. of patients [8] | Mucositis, no. of patients [8] | Myositis, no. of patients [8] | Nausea, no. of patients [8] | Neutropenia, no. of patients [8] | QT prolongation, no. of patients [8] | Supra ventricular arrythmia, no. of patients [8] | Syncope, no. of patients [8] | Thrombocytopenia, no. of patients [8] | Ventricular arrythmias (PVCs), no. of patients [8] | Ventricular bigemini, no. of patients [8]
29%: Anorexia, related AE, frequency [9] | Vomiting, related AE, frequency [9]
1/6: No. of patients with DLT/total no. of patients treated [10]
Grade 3 ALT ^d: DLT (dose level 5.5, dose 60, 5 days every 2 weeks, not clear if entirely related to drug)
87%: Thrombocytopenia, patients (dose ⩾60 mg)
Grade 3 myositis: DLT [10]
26%: Granulocytopenia, patients (dose levels ⩽50 mg)
Thirty-six: Anaemia on study, no. of patients (of 38 patients, any grade)
25: Anaemia, no. of patients (grade 1)
none were grade 3: Grade 3 QTc elevations (all dose levels)
